Reference: patent publication US11446287B2, “Compounds and methods for EP300 or CBP modulation and indications therefor” (Opna Immuno-Oncology SA, priority 2019, dated 2022)

Each compound was assayed against T1, Recombinant human CBP containing the bromodomain (CBP-BD (1043-1159)) (Homo sapiens, UniProt Q92793) (assay: CBP Alphascreen binding assay). Conditions: read-out: CREBBP (CBP) IC50.
T1 construct: Recombinant human CBP bromodomain (CBP-BD (1043-1159)); made in house; host or cells: E. coli BL21-CodonPlus (DE3), modified pET vector
Outline: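 Buffer: 50 mM HEPES pH 7.5, 50 mM NaCl, 0.01% BSA, 0.01% Triton X-100, 2 mM DTT. The signal was normalised to plate controls and fitted with a four-parameter curve to give IC50.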

T1 sequence (Q92793 1081-1197): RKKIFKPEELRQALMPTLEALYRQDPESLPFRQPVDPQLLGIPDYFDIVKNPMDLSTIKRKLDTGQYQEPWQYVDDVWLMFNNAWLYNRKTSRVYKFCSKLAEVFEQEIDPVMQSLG

SMILES	IC50
Cc1noc(C)c1-c1cnc2c(c1)c(-c1ccc(C(=O)O)cc1OCc1ccccc1)cn2[C@@H](C)c1ccccn1 [P-0139, (S)-3-(benzyloxy)-4-(5-(3,5-dimethylisoxazol-4-yl)-1-(1-(pyridin-2-yl)ethyl)-1H-pyrrolo[2,3-b]pyridin-3-yl)benzoic acid]	0.1 to 1000 nM
Cc1noc(C)c1-c1cnc2c(c1)c(-c1ccc(C(=O)O)cc1OC(F)(F)F)cn2CC1CC(F)(F)C1 [P-0157, 4-(1-((3,3-difluorocyclobutyl)methyl)-5-(3,5-dimethylisoxazol-4-yl)-1H-pyrrolo[2,3-b]pyridin-3-yl)-3-(trifluoromethoxy)benzoic acid]	0.1 to 1000 nM
Cc1noc(C)c1-c1cnc2c(-c3cc(C(=O)O)ccc3C#N)cn(C(C)(c3ccccn3)c3ccccn3)c2c1 [P-0166, 4-cyano-3-(1-(1,1-di(pyridin-2-yl)ethyl)-6-(3,5-dimethylisoxazol-4-yl)-1H-pyrrolo[3,2-b]pyridin-3-yl)benzoic acid]	0.1 to 1000 nM
Cc1noc(C)c1-c1cc2c(cn1)c(CC1CCC1)cn2-c1c(Cl)cc(C(=O)O)cc1Cl [P-0149, 3,5-dichloro-4-(3-(cyclobutylmethyl)-6-(3,5-dimethylisoxazol-4-yl)-1H-pyrrolo[3,2-c]pyridin-1-yl)benzoic acid]	0.1 to 1000 nM
Cc1noc(C)c1-c1cnc2c(Cc3cccc(OC(F)F)c3)cn(-c3ccnc(C(=O)O)c3)c2c1 [P-0100, 4-(3-(3-(difluoromethoxy)benzyl)-6-(3,5-dimethylisoxazol-4-yl)-1H-pyrrolo[3,2-b]pyridin-1-yl)picolinic acid]	0.1 to 1000 nM
Cc1noc(C)c1-c1cnc2c(c1)c(-c1ccc(C(=O)O)cc1OC(F)(F)F)cn2-c1ccccn1 [P-0158, 4-(5-(3,5-dimethylisoxazol-4-yl)-1-(pyridin-2-yl)-1H-pyrrolo[2,3-b]pyridin-3-yl)-3-(trifluoromethoxy)benzoic acid]	0.1 to 1000 nM
COc1cc(C(=O)O)cc(OC)c1-c1cn(C(C)c2ccccc2)c2cc(-c3c(C)noc3C)cnc12 (stereo not shown) [P-0119, 4-(6-(3,5-dimethylisoxazol-4-yl)-1-(1-phenylethyl)-1H-pyrrolo[3,2-b]pyridin-3-yl)-3,5-dimethoxybenzoic acid]	0.1 to 1000 nM
Cc1noc(C)c1-c1cnc2c(Cc3cccc(Cl)c3)cn(-c3c(Cl)cc(C(=O)O)cc3Cl)c2c1 [P-0128, 3,5-dichloro-4-(3-(3-chlorobenzyl)-6-(3,5-dimethylisoxazol-4-yl)-1H-pyrrolo[3,2-b]pyridin-1-yl)benzoic acid]	0.1 to 1000 nM
CCCOc1cc(C(=O)O)ccc1-c1cn([C@@H](C)c2ccccn2)c2ncc(-c3c(C)noc3C)cc12 [P-0113, (S)-4-(5-(3,5-dimethylisoxazol-4-yl)-1-(1-(pyridin-2-yl)ethyl)-1H-pyrrolo[2,3-b]pyridin-3-yl)-3-propoxybenzoic acid]	0.1 to 1000 nM
Cc1noc(C)c1-c1cnc2c(c1)c(-c1ccc(C(=O)O)cc1)cn2C(c1ccccn1)C1CCC1 (stereo not shown) [P-0008, 4-(1-(cyclobutyl(pyridin-2-yl)methyl)-5-(3,5-dimethylisoxazol-4-yl)-1H-pyrrolo[2,3-b]pyridin-3-yl)benzoic acid]	0.1 to 1000 nM
COc1c(C(=O)O)cccc1-c1cn(C(C)c2ccccc2)c2cc(-c3c(C)noc3C)cnc12 (stereo not shown) [P-0136, 3-(6-(3,5-dimethylisoxazol-4-yl)-1-(1-phenylethyl)-1H-pyrrolo[3,2-b]pyridin-3-yl)-2-methoxybenzoic acid]	0.1 to 1000 nM
Cc1noc(C)c1-c1cnc2c(c1)c(-c1ccc(F)c(C(=O)O)c1F)cn2[C@@H](C)c1ccccn1 [P-0125, (S)-3-(5-(3,5-dimethylisoxazol-4-yl)-1-(1-(pyridin-2-yl)ethyl)-1H-pyrrolo[2,3-b]pyridin-3-yl)-2,6-difluorobenzoic acid]	0.1 to 1000 nM
Cc1noc(C)c1-c1cnc2c(c1)c(-c1cccc(C(=O)O)c1)cn2CC1CC(F)(F)C1 [P-0101, 3-(1-((3,3-difluorocyclobutyl)methyl)-5-(3,5-dimethylisoxazol-4-yl)-1H-pyrrolo[2,3-b]pyridin-3-yl)benzoic acid]	0.1 to 1000 nM
Cc1noc(C)c1-c1cnc2c(c1)c(-c1ccc(C(=O)O)cc1C(F)(F)F)cn2[C@@H](C)c1ccccn1 [P-0116, (S)-4-(5-(3,5-dimethylisoxazol-4-yl)-1-(1-(pyridin-2-yl)ethyl)-1H-pyrrolo[2,3-b]pyridin-3-yl)-3-(trifluoromethyl)benzoic acid]	0.1 to 1000 nM
Cc1noc(C)c1-c1cnc2c(c1)c(-c1ccc(C(=O)O)cn1)cn2C(C)c1ccccn1 (stereo not shown) [P-0123, 6-(5-(3,5-dimethylisoxazol-4-yl)-1-(1-(pyridin-2-yl)ethyl)-1H-pyrrolo[2,3-b]pyridin-3-yl)nicotinic acid]	0.1 to 1000 nM
Cc1noc(C)c1-c1cnc2c(Cc3ccccc3Cl)cn(-c3c(Cl)cc(C(=O)O)cc3Cl)c2c1 [P-0131, 3,5-dichloro-4-(3-(2-chlorobenzyl)-6-(3,5-dimethylisoxazol-4-yl)-1H-pyrrolo[3,2-b]pyridin-1-yl)benzoic acid]	0.1 to 1000 nM
Cc1noc(C)c1-c1cnc2c(C(=O)c3cccc(OC(F)F)c3)cn(-c3ccnc(C(=O)O)c3)c2c1 [P-0099, 4-(3-(3-(difluoromethoxy)benzoyl)-6-(3,5-dimethylisoxazol-4-yl)-1H-pyrrolo[3,2-b]pyridin-1-yl)picolinic acid]	0.1 to 1000 nM
Cc1noc(C)c1-c1cnc2c(CC3CC3)cn(-c3ccc(C(=O)O)cn3)c2c1 [P-0010, 6-(3-(cyclopropylmethyl)-6-(3,5-dimethylisoxazol-4-yl)-1H-pyrrolo[3,2-b]pyridin-1-yl)nicotinic acid]	0.1 to 1000 nM
Cc1noc(C)c1-c1cnc2c(CC3CCC3)cn(-c3ccc(O)nc3)c2c1 [P-0143, 5-(3-(cyclobutylmethyl)-6-(3,5-dimethylisoxazol-4-yl)-1H-pyrrolo[3,2-b]pyridin-1-yl)pyridin-2-ol]	1000 to 8000 nM
